Test results as given in PubChem BioAssay AID330 (DTP/NCI, 2004).
Inconclusive results and toxic doses are left out. Rule for the calls: active = survival T/C of 150% or more; inactive = T/C below 125% in these data. Peptide text beside a SMILES is read from it.

Test system: P388 leukemia ip, CD2F1 mice, survival T/C
Assay: NCI In Vivo Anticancer Drug Screen. Data for tumor model P388 Leukemia (intraperitoneal) in CD2F1 (CDF1) mice
Conditions: endpoint: median survival time, higher = longer survival
Procedure, shortened: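 Mice carrying the transplanted tumor received test compound or vehicle. Survival was recorded in each group, and the value is the treated-group measurement divided by that of the vehicle-treated control group.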

[1] = dose: 25.0 mg/kg/injection, schedule: Q01DX009 (ip), vehicle: saline with Tween-80
[2] = dose: 50.0 mg/kg/injection, schedule: Q01DX009 (ip), vehicle: saline with Tween-80
[3] = dose: 100.0 mg/kg/injection, schedule: Q01DX009 (ip), vehicle: saline with Tween-80
[4] = dose: 50.0 mg/kg/injection, schedule: Q01DX005 (ip), vehicle: saline with Tween-80
[5] = dose: 100.0 mg/kg/injection, schedule: Q01DX005 (ip), vehicle: saline with Tween-80
[6] = dose: 200.0 mg/kg/injection, schedule: Q01DX005 (ip), vehicle: saline with Tween-80
[7] = dose: 100.0 mg/kg/injection, schedule: Q04DX003 (ip), vehicle: Klucel (hydroxypropylcellulose) (HPC)
[8] = dose: 200.0 mg/kg/injection, schedule: Q01DX009 (ip), vehicle: saline with Tween-80

Measured: T/C

CC(C)=CCc1c2ccoc2c(O)c2oc(=O)ccc12
inactive: [1] 106 % of control | [2] 105 % of control | [3] 105 % of control

CCOC(=O)c1csc(-c2ccc(COC(=O)c3ccccc3)o2)n1
inactive: [4] 100 % of control | [5] 96 % of control | [6] 89 % of control

CC(C)CC(NC(=O)C(C)NC(=O)CN)C(=O)O (stereo not drawn) (H-Gly-Ala-Leu-OH; configuration not given here)
inactive: [4] 103 % of control | [5] 107 % of control | [6] 99 % of control

N#CC(C(=O)CCC(=O)C(C#N)c1ccccc1Cl)c1ccccc1Cl (configuration not stated)
inactive: dose: 60.0 mg/kg/injection, schedule: Q01DX005 (ip), vehicle: saline with Tween-80 104 % of control | dose: 120.0 mg/kg/injection, schedule: Q01DX005 (ip), vehicle: saline with Tween-80 114 % of control | dose: 240.0 mg/kg/injection, schedule: Q01DX005 (ip), vehicle: saline with Tween-80 111 % of control

O=c1c2ccccc2[nH]c2c(O)c3c(=O)c4ccccc4[nH]c3cc12
inactive: [7] 102 % of control | dose: 200.0 mg/kg/injection, schedule: Q04DX003 (ip), vehicle: Klucel (hydroxypropylcellulose) (HPC) 92 % of control | dose: 400.0 mg/kg/injection, schedule: Q04DX003 (ip), vehicle: Klucel (hydroxypropylcellulose) (HPC) 102 % of control

O=C(O)CSc1nnc(C2CCC(=O)N2Cc2ccccc2)o1 (configuration not stated)
inactive: dose: 100.0 mg/kg/injection, schedule: Q01DX001 (ip), vehicle: saline with Tween-80 99 % of control | dose: 200.0 mg/kg/injection, schedule: Q01DX001 (ip), vehicle: saline with Tween-80 101 % of control | dose: 400.0 mg/kg/injection, schedule: Q01DX001 (ip), vehicle: saline with Tween-80 95 % of control

Cc1ccc(S(=O)(=O)OCC(OS(=O)(=O)c2ccc(C)cc2)C2OC3OC(C)(C)OC3C2O)cc1 (configuration not stated)
inactive: [4] 103 % of control | [5] 97 % of control | [6] 96 % of control

O=C(COc1cccc2oc3ccccc3c(=O)c12)N/N=C/c1ccc(N(CCCl)CCCl)cc1
inactive: dose: 60.0 mg/kg/injection, schedule: Q01DX005 (ip), vehicle: Klucel (hydroxypropylcellulose) (HPC) 97 % of control | dose: 120.0 mg/kg/injection, schedule: Q01DX005 (ip), vehicle: Klucel (hydroxypropylcellulose) (HPC) 96 % of control | dose: 240.0 mg/kg/injection, schedule: Q01DX005 (ip), vehicle: Klucel (hydroxypropylcellulose) (HPC) 95 % of control

O=C1/C(=C/c2cccnc2)SC(=S)N1Cc1ccco1
inactive: [2] 97 % of control | [3] 94 % of control | [8] 90 % of control

CC1CCCN2C(=O)CN(CCc3ccccc3)CC(=O)N12 (configuration not stated)
inactive: [4] 99 % of control | [5] 100 % of control | [6] 100 % of control

O=C1Nc2ccccc2/C1=C\c1ccccc1O
inactive: dose: 25.0 mg/kg/injection, schedule: Q01DX009 (ip), vehicle: Klucel (hydroxypropylcellulose) (HPC) 98 % of control | dose: 50.0 mg/kg/injection, schedule: Q01DX009 (ip), vehicle: Klucel (hydroxypropylcellulose) (HPC) 96 % of control | dose: 100.0 mg/kg/injection, schedule: Q01DX009 (ip), vehicle: Klucel (hydroxypropylcellulose) (HPC) 95 % of control | dose: 200.0 mg/kg/injection, schedule: Q01DX009 (ip), vehicle: Klucel (hydroxypropylcellulose) (HPC) 98 % of control | dose: 400.0 mg/kg/injection, schedule: Q01DX009 (ip), vehicle: Klucel (hydroxypropylcellulose) (HPC) 88 % of control

C[N+](C)(Cc1ccccc1)[N-]C(=N)c1ccccc1
inactive: dose: 12.5 mg/kg/injection, schedule: Q04DX003 (ip), vehicle: Klucel (hydroxypropylcellulose) (HPC) 105 % of control | dose: 25.0 mg/kg/injection, schedule: Q04DX003 (ip), vehicle: Klucel (hydroxypropylcellulose) (HPC) 101 % of control | dose: 50.0 mg/kg/injection, schedule: Q04DX003 (ip), vehicle: Klucel (hydroxypropylcellulose) (HPC) 100 % of control | [7] 103 % of control

NN1C(=O)c2ccc3c4c(ccc(c24)C1=O)CC3
inactive: dose: 50.0 mg/kg/injection, schedule: Q01DX009 (ip), vehicle: suspension in saline 91 % of control | dose: 100.0 mg/kg/injection, schedule: Q01DX009 (ip), vehicle: suspension in saline 102 % of control | dose: 200.0 mg/kg/injection, schedule: Q01DX009 (ip), vehicle: suspension in saline 88 % of control | dose: 400.0 mg/kg/injection, schedule: Q01DX009 (ip), vehicle: suspension in saline 99 % of control

N#CC(N)(C#N)C(N)=O
inactive: dose: 100.0 mg/kg/injection, schedule: Q01DX001 (ip), vehicle: saline 101 % of control | dose: 200.0 mg/kg/injection, schedule: Q01DX001 (ip), vehicle: saline 101 % of control | dose: 400.0 mg/kg/injection, schedule: Q01DX001 (ip), vehicle: saline 103 % of control

CC(=O)C(C)C(C)=O
inactive: dose: 6.25 mg/kg/injection, schedule: Q01DX009 (ip), vehicle: saline with Tween-80 97 % of control | dose: 12.5 mg/kg/injection, schedule: Q01DX009 (ip), vehicle: saline with Tween-80 93 % of control | [1] 100 % of control | [2] 107 % of control | [3] 108 % of control | [8] 103 % of control | dose: 400.0 mg/kg/injection, schedule: Q01DX009 (ip), vehicle: saline with Tween-80 110 % of control

CN1C(=C2C=CC(=NS(=O)(=O)c3ccc(Cl)cc3)C=C2)Sc2ccccc21
inactive: dose: 100.0 mg/kg/injection, schedule: Q04DX003 (ip), vehicle: saline 105 % of control | dose: 200.0 mg/kg/injection, schedule: Q04DX003 (ip), vehicle: saline 106 % of control | dose: 400.0 mg/kg/injection, schedule: Q04DX003 (ip), vehicle: saline 100 % of control

COC(=O)C(N)CCl (configuration not stated)
inactive: dose: 12.5 mg/kg/injection, schedule: Q01DX009 (ip), vehicle: water 91 % of control | dose: 25.0 mg/kg/injection, schedule: Q01DX009 (ip), vehicle: water 92 % of control | dose: 50.0 mg/kg/injection, schedule: Q01DX009 (ip), vehicle: water 90 % of control | dose: 100.0 mg/kg/injection, schedule: Q01DX009 (ip), vehicle: water 99 % of control | dose: 200.0 mg/kg/injection, schedule: Q01DX009 (ip), vehicle: water 90 % of control

Nc1nnnn1-n1cccc1
inactive: [4] 103 % of control | [5] 103 % of control | [6] 103 % of control

O=c1c2ccccc2on1CN1CCN(Cn2oc3ccccc3c2=O)CC1
inactive: dose: 50.0 mg/kg/injection, schedule: Q01DX005 (ip), vehicle: water 106 % of control | dose: 100.0 mg/kg/injection, schedule: Q01DX005 (ip), vehicle: water 108 % of control | dose: 200.0 mg/kg/injection, schedule: Q01DX005 (ip), vehicle: water 111 % of control
